According to ChEMBL document CHEMBL1122614, “Antiinflammatory activity of N-(2-benzoylphenyl)alanine derivatives” (J Med Chem, 1984):
Several values for one entry are separate records, joined by “and”; a condition that tells them apart may be missing. Equal entries are not always repeated. Activity calls are given as the source filed them. The rule behind the calls is not given here.

Tests used:
[1] = test system: Rattus norvegicus; assay: Percentage change in volume of pleural fluid in the 5h- Evans Blue-Carrageenan pleural assay for the compound at dose 80 mg/kg; format: functional
[2] = test system: Rattus norvegicus; assay: Percentage change in volume of pleural fluid in the 5-h Evans Blue-Carrageenan pleural assay for the compound at dose 20 mg/kg; format: functional
[3] = target: T1, Cyclooxygenase (Bos taurus, UniProt O62664+O62698)
T1 sequence (O62664 whole entry): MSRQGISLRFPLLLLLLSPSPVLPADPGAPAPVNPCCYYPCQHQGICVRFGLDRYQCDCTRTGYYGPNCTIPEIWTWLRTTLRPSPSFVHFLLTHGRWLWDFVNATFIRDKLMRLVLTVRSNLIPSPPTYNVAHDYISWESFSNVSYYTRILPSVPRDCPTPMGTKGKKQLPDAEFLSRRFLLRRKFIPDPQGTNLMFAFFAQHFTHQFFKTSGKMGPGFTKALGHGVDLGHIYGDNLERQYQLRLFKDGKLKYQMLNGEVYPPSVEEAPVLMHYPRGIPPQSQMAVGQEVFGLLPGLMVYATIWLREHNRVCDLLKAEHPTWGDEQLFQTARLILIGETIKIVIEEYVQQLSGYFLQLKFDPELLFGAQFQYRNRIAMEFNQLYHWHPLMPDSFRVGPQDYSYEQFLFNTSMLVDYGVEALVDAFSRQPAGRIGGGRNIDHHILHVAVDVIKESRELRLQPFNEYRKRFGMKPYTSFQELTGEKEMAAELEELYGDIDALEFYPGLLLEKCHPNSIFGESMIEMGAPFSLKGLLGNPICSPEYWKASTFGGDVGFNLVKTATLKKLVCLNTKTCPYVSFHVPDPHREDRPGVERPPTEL
T1 sequence (O62698 whole entry): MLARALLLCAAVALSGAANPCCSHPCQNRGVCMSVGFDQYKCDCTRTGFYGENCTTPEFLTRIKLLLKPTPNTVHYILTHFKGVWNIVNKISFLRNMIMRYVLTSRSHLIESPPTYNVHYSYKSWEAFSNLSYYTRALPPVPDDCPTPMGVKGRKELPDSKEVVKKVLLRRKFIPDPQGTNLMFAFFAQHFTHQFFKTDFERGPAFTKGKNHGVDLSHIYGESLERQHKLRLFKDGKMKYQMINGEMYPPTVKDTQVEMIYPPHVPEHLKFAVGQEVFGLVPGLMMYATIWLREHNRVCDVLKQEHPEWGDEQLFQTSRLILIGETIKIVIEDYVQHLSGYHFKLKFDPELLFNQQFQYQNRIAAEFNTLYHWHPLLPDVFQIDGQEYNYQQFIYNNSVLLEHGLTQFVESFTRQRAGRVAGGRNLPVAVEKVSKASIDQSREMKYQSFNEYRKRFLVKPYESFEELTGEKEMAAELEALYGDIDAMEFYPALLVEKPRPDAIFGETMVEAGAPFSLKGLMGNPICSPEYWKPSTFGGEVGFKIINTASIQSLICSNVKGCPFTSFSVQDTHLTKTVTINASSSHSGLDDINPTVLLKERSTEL
Description: Inhibition of PG synthetase activity obtained from bovine seminal vesicles

[4] = test system: Rattus norvegicus; assay: Percentage change in volume of pleural fluid in the 5-h Evans Blue-Carrageenan pleural assay for Indomethacin 4.0 mg/kg; format: functional
[5] = test system: Rattus norvegicus; assay: Oral antiinflammatory activity, measured in rats at the dose of 316 mg/kg; format: functional
[6] = test system: Rattus norvegicus; assay: Relative Oral Anti inflammatory activity in the 5-h Evans Blue-Carrageenan pleural assay using indomethacin as reference compound; IA = inactive at 316 mg/kg; format: functional, organism-based; set-up: dose 316 mg/kg
[7] = test system: Rattus norvegicus; assay: Percentage change in volume of pleural fluid in the 5-h Evans Blue-Carrageenan pleural assay for the compound at dose 4 mg/kg; format: functional
[8] = test system: Rattus norvegicus; assay: Percentage change in volume of pleural fluid in the 5-h Evans Blue-Carrageenan pleural assay for the compound at dose 100 mg/kg; format: functional
[9] = test system: Rattus norvegicus; assay: Percentage change in volume of pleural fluid in the 5-h Evans Blue-Carrageenan pleural assay for Indomethacin at dose 4.0 mg/kg; format: functional
[10] = species on record: Rattus norvegicus; assay: Percentage change in volume of pleural fluid in the 5-h Evans Blue-Carrageenan pleural assay for the compound; format: functional
[11] = test system: Rattus norvegicus; assay: Percentage change in volume of pleural fluid in the 5-h Evans Blue-Carrageenan pleural assay for the compound at (100 mg/kg); format: functional
[12] = test system: Rattus norvegicus; assay: Percentage change in volume of pleural fluid in the 5-h Evans Blue-Carrageenan pleural assay for the compound at dose 20 m/kg; format: functional
[13] = test system: Rattus norvegicus; assay: Percentage change in volume of pleural fluid in the 5-h Evans Blue-Carrageenan pleural assay for the compound at dose 100 m/kg; format: functional
[14] = test system: Rattus norvegicus; assay: Percentage change in volume of pleural fluid in the 5-h Evans Blue-Carrageenan pleural assay for the compound at dose 80 m/kg; format: functional

CC(Nc1ccccc1C(=O)c1ccc(Cl)cc1)C(=O)O (configuration not stated)
Change [1]: -33%
Change [2]: -5%
IC50 [3]: 60 µM
Change [4]: -30%
Efficacy ratio ([5]; 316 mg/kg): 1.62 and 1.42

Cc1ccc2c(-c3ccccc3)nc(=O)n(C(C)C(=O)O)c2c1 (configuration not stated)
Relative potency [6]: inactive
IC50 [3]: 300 µM

Cc1ccc(C(=O)c2ccccc2)c(NC(C)C(=O)O)c1 (configuration not stated)
Change [2]: -19%
Change [4]: -28%
Efficacy ratio ([5]; 316 mg/kg): 1.88 and 1.46

COc1ccc(C(=O)c2ccccc2NC(C)C(=O)O)cc1 (configuration not stated)
Change [7]: -9%
Change [8]: -22%
Change [4]: -35%
Efficacy ratio ([5]; 316 mg/kg): 1.8 and 1.94

CC(Nc1ccc(Cl)cc1C(=O)c1ccccc1)C(=O)O (configuration not stated)
Change [7]: 6%
Change ([8]; 100 mg/kg): -28% and -18%
Efficacy ratio ([5]; 316 mg/kg): 1.96 and 1.57

CC(C)Nc1ccccc1C(=O)c1ccccc1.Cl
Efficacy ratio ([5]; 316 mg/kg): 1.13 and 1.46

COc1ccc(NC(C)C(=O)O)c(C(=O)c2ccccc2)c1 (configuration not stated)
Efficacy ratio ([5]; 316 mg/kg): 1.06 and 1.52

Cc1ccc(NC(C)C(=O)O)c(C(=O)c2ccccc2)c1 (configuration not stated)
Change [9]: -31%
Change [8]: -15%
Efficacy ratio [5]: 1.52

CC(Nc1ccccc1C(=O)c1ccc(Br)cc1)C(=O)O (configuration not stated)
Change [7]: -3%
Change [8]: -29%
Change [4]: -25%
Efficacy ratio ([5]; 316 mg/kg): 1.43 and 1.46

CC(Nc1ccc(Cl)cc1C(=O)c1ccc(Br)cc1)C(=O)O (configuration not stated)
Efficacy ratio ([5]; 316 mg/kg): 1.1 and 1.57

CN(CC(=O)O)c1ccccc1C(=O)c1ccccc1.Cl
Change [10]: -13%
Change [4]: -38%

Cc1c(NCC(=O)O)cccc1C(=O)c1ccc(Cl)cc1
IC50 [3]: > 1000 µM

O=C(O)CNc1ccccc1C(=O)c1ccccc1
Efficacy ratio ([5]; 316 mg/kg): 0.98 and 1.47

CC(Nc1ccccc1C(=O)c1ccc(Cl)cc1Cl)C(=O)O (configuration not stated)
Change [7]: -3%
Change [8]: -34%
Change [4]: -32%
Efficacy ratio ([5]; 316 mg/kg): 1.44 and 1.52

CC(Nc1ccc(C(=O)c2ccccc2)cc1)C(=O)O (configuration not stated)
Change [11]: -4%
Change [4]: -31%
Efficacy ratio ([5]; 316 mg/kg): 1.37 and 1.91

CC(Oc1ccccc1C(=O)c1ccccc1)C(=O)O (configuration not stated)
Efficacy ratio ([5]; 316 mg/kg): 0.98 and 1.65

CC(Nc1ccccc1Oc1ccccc1)C(=O)O (configuration not stated)
Efficacy ratio ([5]; 316 mg/kg): 1.18 and 1.52

Cc1ccc2c(-c3ccccc3)nc(=O)n(C(C)C)c2c1 [PROQUAZONE]
IC50 [3]: 0.07 µM

CC(Nc1cccc(C(=O)c2ccccc2)c1)C(=O)O.Cl (configuration not stated)
Change [11]: -15%
Change [4]: -32%
Efficacy ratio ([5]; 316 mg/kg): 1.38 and 1.4

O=C(O)CCNc1ccccc1C(=O)c1ccccc1
Change [11]: -9%
Change [4]: -41%
Efficacy ratio ([5]; 316 mg/kg): 1.35 and 1.46

CC(CNc1ccccc1C(=O)c1ccccc1)C(=O)O.Cl (configuration not stated)
Efficacy ratio ([5]; 316 mg/kg): 0.97 and 1.4

Cc1ccc(C(=O)c2ccccc2NC(C)C(=O)O)cc1 (configuration not stated)
Change [7]: -8%
Change [8]: -21%
Change [4]: -35%
Efficacy ratio ([5]; 316 mg/kg): 1.39 and 1.52

CC(Nc1ccccc1C(=O)c1ccccc1)C(=O)O (configuration not stated)
Change ([9]; 4 mg/kg): -20% and -30%
Change [12]: 4%
Change [13]: -28%
Change [14]: -32%
Efficacy ratio ([5]; 316 mg/kg): 1.6 and 1.66
